Laboratory results as given in patent US10863753B2, “Iron-fortified tea preparations and methods of making same” (The Governing Council of the University of Toronto, priority 2015, dated 2020).
Several values for one entry are separate records, joined by “and”; a condition that tells them apart may be missing. Identical values can stand only once. Like-named read-outs stand apart in the source and are kept apart here.

Tests used:
[1] = Iron-polyphenol complex formation in brewed tea (spectrophotometry / colour); type: physicochemical
Description: Iron polyphenol complex was measured using spectrophotometry. 2 L of tea were freshly prepared and brewed for 5 minutes. Tea leaves were removed and the liquid was distributed into 6 beakers (250 ml each). A stock solution of ferric EDTA was prepared and increasing volumes were added to each beaker. The maximum UV and Visible light absorbance wavelength for the tea was determined Absorbance at this maximum absorbance wavelength was measured after 5, 20 and 60 minutes. […]
Complex formation was determined using spectrophotometry. […] The maximum UV and visible light wavelength absorbance for the iron-tea polyphenol complex was determined. The maximum absorbance was 580 nm at tea pH and fortified teas were measured after 5, 20 and 60 minutes.

[2] = Complexation of iron in gallic acid solution (spectrophotometry); settings: for Reduction of iron polyphenol complex formation: gallic acid; for Iron gallic acid complex: 0.3 mM iron
Description: To approximate brewed tea, a concentration of 1 g/L and pH 5 were used. Binding of iron was also tested at pH 7 to approximate the pH of the small intestine. Hydrochloric acid and sodium hydroxide were used to adjust and maintain the pH. […] Since the iron-gallate complex is coloured, spectrophotometry was used to quantify the complex formation.

[3] = type: physicochemical; settings: for Precipitation in tea extract / Reduction of iron-polyphenol complex formation: tea extract 1 gGAE/L
Description: The tea extract was prepared using a solution of 50% by volume N,N-dimethylformamide (DMF) and 50% by volume reverse osmosis purified (RO) water with black tea leaves. […] Tea extract was diluted to the concentration of tea (1 gGAE/L) or to 1/10th of that concentration (0.1 gGAE/L) for use in these experiments and pH was controlled using hydrochloric acid and sodium hydroxide.
Iron complex formation was measured using spectrophotometry and analyzed by normalizing against ferrous sulfate in gallic acid (GA) at the phenolic concentration of tea. Therefore, 100% represents the peak absorbance of ferrous sulfate in a 1 g/L gallic acid solution at pH 5 or pH 7.

Caco-2 cells = assay: Caco-2 cell transport, bioavailable fraction in basolateral chamber (Example 3)
Description: The digested liquid was diluted to half with buffer in order to ensure cells survival during the experiment, and the basolateral camera was filled with 2 ml of buffer. […] The liquid from the basolateral camera was collected and sent for iron analysis using AAS.

[4] = In vitro bioaccessibility, simulated pepsin and pancreatin/bile digestion (Example 3); type: in vitro ADME; settings: in tea, no EDTA protection
[5] = iron source added to tea without EDTA protection
[6] = iron source with EDTA protection, molar ratio 1:2
[7] = target pH 5, tea extract 0.1 gGAE/L, 0.3 mM iron
[8] = target pH 7, tea extract 0.1 gGAE/L, 0.3 mM iron

SMILES | Iron-polyphenol complex formation (colour) [1, 5] | Iron-polyphenol complex formation (colour) [1, 6] | Reduction of iron polyphenol complex formation ([2]; pH 5) | Reduction of iron polyphenol complex formation ([2]; pH 7) | Iron gallic acid complex ([2]; target pH 5, 1 g/L gallic acid) [%] | Iron gallic acid complex ([2]; target pH 7, 1 g/L gallic acid) [%] | Iron Complex (% FS in 1 g/L GA) [3, 7] [% FS in 1 g/L GA] | Iron Complex (% FS in 1 g/L GA) ([3]; target pH 5, tea extract 0.1 gGAE/L, 0.3 mM iron, listed as Ferric sodium EDTA) | Iron Complex (% FS in 1 g/L GA) ([3]; target pH 5, tea extract 1 gGAE/L, 0.3 mM iron) | Iron Complex (% FS in 1 g/L GA) [3, 8] [% FS in 1 g/L GA] | Iron Complex (% FS in 1 g/L GA) ([3]; target pH 7, tea extract 0.1 gGAE/L, 0.3 mM iron, listed as Ferric sodium EDTA) | Iron Complex (% FS in 1 g/L GA) ([3]; target pH 7, tea extract 1 gGAE/L, 0.3 mM iron) | Precipitation in tea extract [3] | Reduction of iron-polyphenol complex formation ([3]; pH 5) [%] | Reduction of iron-polyphenol complex formation ([3]; pH 7) [%] | Increased bioavailability with an excess of EDTA versus no protection (Caco-2 cells; in fortified tea) [fold] | Bioavailability of iron (Caco-2 cells; in tea, added without EDTA protection) | Bioaccessibility of iron [4] | Iron Complex (% FS in 1 g/L GA) ([3]; pH 5) | Iron Complex (% FS in 1 g/L GA) ([3]; pH 7)
O=C([O-])CN(CCN(CC(=O)[O-])CC(=O)[O-])CC(=O)[O-].[Fe+3].[Na+] [FeNaEDTA, ferric sodium EDTA] | complex was formed | effective in avoiding complex formation | 94%±3% | 93%±2% | 6.2 ± 0.2 | 7.0 ± 0.5 | 3.0 ± 0.2 | 3 | 4 ± 6 | 3.0 ± 0.7 | 3 | 70 ± 8 | not cause precipitation | 96 | 30 | – | – | – | – | –
O=C([O-])/C=C/C(=O)[O-].[Fe+2] [ferrous fumarate] | iron-polyphenol complex was formed instantaneously | effective in avoiding complex formation | – | – | 103 ± 3.0 | 110 ± 2.0 | 65 ± 2 | – | – | 66 ± 3 | – | – | precipitation occurs | – | – | 4 | 16% and 12% | – | – | –
O=S(=O)([O-])[O-].[Fe+2] [ferrous sulphate] | iron-polyphenol complex was formed instantaneously | effective in avoiding complex formation | – | – | 100 ± 3.0 | 100 ± 2.0 | – | – | – | – | – | – | – | – | – | – | – | lowest bioaccessibility | 72 ± 2 | 85 ± 1
